Source: PMC10856407, “Polymer Nanoparticles with 2-HP-β-Cyclodextrin for Enhanced Retention of Uptake into HCE-T Cells” (Molecules, 2024)

How the values were obtained:
[1] = system: HCE-T cells; experiment: Endocytic transport mechanism in nanoparticle uptake (endocytosis inhibitors, flow cytometry); format: cell-based, human; conditions: EIPA 100 μM, Chlorpromazine 30 μM, Nystain 30 μM, p < 0.01
Experimental: The main nanoparticle entry processes involve the clathrin structure, caveolin/lipid raft structure, and macropinocytosis. The experiment was conducted by separately adding different endocytosis transport inhibitors to examine the degree of action during nanoparticle uptake. The clathrin structural inhibitor Chlorpromazine (30 μM), the caveolin/lipid raft structure inhibitor Nystain (30 μM), and the macropinocytosis inhibitor derivative amiloride (EIPA, 100 μM) were added seperately. […] Serum-free cultures of varying endocytotic transport inhibitors were inspected using the method described above (Study of Active Transport Mechanism in Nanoparticle Uptake by HCE-T Cells).

[2] = system: HCE-T cells; conditions: sodium azide 1 mg·mL^−1, 1 h pre-incubation, 4 h uptake, NPs 20 μg·mL^−1, p < 0.01
Experimental: HCE-T cells were seeded at a density of 1 × 10^5 cells·well^−1 in a six-well plate, and the culture medium was discarded when the cell density reached 80%. […] Then, fluorescently labeled nanoparticles were added for a final concentration of 20 μg·mL^−1. After continuing the uptake experiment for 4 h, the fluorescently labeled nanoparticle solution was discarded, washed three times with PBS, and digested using trypsin. The cells were blown out with serum cultures, collected, and centrifuged at 1000 rpm. The supernatant was aspirated to remove the fluorescent material adsorbed on the cell surface. Finally, 0.3 mL of the cells suspended in PBS were transferred into flow tubes and assayed using flow cytometry (BD FACSCanto II, Becton, Dickinson and Company, New York, NY, USA). The fluorescence intensity was quantified by collecting 10,000 cells, and X-means were used for comparing the differences in cell uptake between the groups.

Compound	inhibition of HCE-T cell uptake of (2-HP-β-CD)/PLGA NPs [1] [%]	also measured
CN(C)CCCN1c2ccccc2Sc2ccc(Cl)cc21 [Chlorpromazine]		inhibition at 30 µM ([1]; Homo sapiens, read-out: inhibition of HCE-T cell uptake of (2-HP-β-CD)/PLGA NPs): 46.4%
[N-]=[N+]=[N-].[Na+] [sodium azide]		reduction of uptake of (2-HP-β-CD)/PLGA NPs [2]: 60.0%
CCN(c1nc(N)c(C(=O)N=C(N)N)nc1Cl)C(C)C [EIPA, 5-(N-ethyl-N-isopropyl) amiloride]	53.3	
Nystain	38.3	
